Assay results as given in PubChem BioAssay AID2060496 (Molecular Pharmacology Branch, DTP, NCI, 2025).
pIC50: −log10 of the molar value.

Test system: 276233-004-R-J1-PDC complex spheroid viability
Experiment: Anticancer human tumor 276233-004-R-J1-PDC patient-derived colon adenocarcinoma cell line growth inhibition [GQUAD]
Conditions: for pIC50: curve of first compound; for viability, T/C: stronger effect = lower value; active = viability on the fitted dose curve at most 10% of control; inactive = the rest
How it was run: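 Multi-cell-type spheroids of tumor cells with HUVEC and mesenchymal stem cells, treated with drug combinations. Concentrations descend in half-log steps from near clinical Cmax, or from 10 microM where Cmax is unknown; viability read-out.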

[1] = second compound 0.0316 µM, first compound 0.0316 µM
[2] = second compound 0.0316 µM, first compound 0.1 µM
[3] = second compound 0.0316 µM, first compound 0.316 µM
[4] = second compound 0.0316 µM, first compound 1 µM
[5] = second compound 0.0316 µM, first compound 3.16 µM
[6] = second compound 0.0316 µM, first compound 10 µM
[7] = second compound 0.1 µM, first compound 0.0316 µM
[8] = second compound 0.1 µM, first compound 0.1 µM
[9] = second compound 0.1 µM, first compound 0.316 µM
[10] = second compound 0.1 µM, first compound 1 µM
[11] = second compound 0.1 µM, first compound 3.16 µM
[12] = second compound 0.1 µM, first compound 10 µM
[13] = second compound 0.316 µM, first compound 0.0316 µM
[14] = second compound 0.316 µM, first compound 0.1 µM
[15] = second compound 0.316 µM, first compound 0.316 µM
[16] = second compound 0.316 µM, first compound 1 µM
[17] = second compound 0.316 µM, first compound 3.16 µM
[18] = second compound 0.316 µM, first compound 10 µM
[19] = second compound 1 µM, first compound 0.0316 µM
[20] = second compound 1 µM, first compound 0.1 µM
[21] = second compound 1 µM, first compound 0.316 µM
[22] = second compound 1 µM, first compound 1 µM
[23] = second compound 1 µM, first compound 3.16 µM
[24] = second compound 1 µM, first compound 10 µM
[25] = second compound 3.16 µM, first compound 0.0316 µM
[26] = second compound 3.16 µM, first compound 0.1 µM
[27] = second compound 3.16 µM, first compound 0.316 µM
[28] = second compound 3.16 µM, first compound 1 µM
[29] = second compound 3.16 µM, first compound 3.16 µM
[30] = second compound 3.16 µM, first compound 10 µM
[31] = second compound 10 µM, first compound 0.0316 µM
[32] = second compound 10 µM, first compound 0.1 µM
[33] = second compound 10 µM, first compound 0.316 µM
[34] = second compound 10 µM, first compound 1 µM
[35] = second compound 10 µM, first compound 3.16 µM
[36] = second compound 10 µM, first compound 10 µM
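Note: spheroids exposed to drugs for seven days.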
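Throughout, for viability, T/C: 100% = DMSO vehicle control viability.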

CC1COCCN1c1cc(-c2ccnn2C)c2ccnc(-c3ccn[nH]3)c2n1 (stereo not given) + Cc1cnc(CNC(=O)c2c(=O)c3ccc(N4CCCN(C)CC4)nc3n3c2sc2ccccc23)cn1
5.43: pIC50 (second compound 0.316 µM)
5.48: pIC50 (second compound 3.16 µM)
inactive: viability, T/C [1] 99.5% | viability, T/C [2] 57.5% | viability, T/C [3] 78.7% | viability, T/C [4] 56% | viability, T/C [5] 63.2% | viability, T/C [6] 42.5% | viability, T/C [7] 79.6% | viability, T/C [8] 86.5% | viability, T/C [9] 63.2% | viability, T/C [10] 67.2% | viability, T/C [11] 56.6% | viability, T/C [12] 55.1% | viability, T/C [13] 73.1% | viability, T/C [14] 67.1% | viability, T/C [15] 65.9% | viability, T/C [16] 58.9% | viability, T/C [17] 51.3% | viability, T/C [18] 41.8% | viability, T/C [19] 68.9% | viability, T/C [20] 64.7% | viability, T/C [21] 67.4% | viability, T/C [22] 58.4% | viability, T/C [23] 52.3% | viability, T/C [24] 43.5% | viability, T/C [25] 63.1% | viability, T/C [26] 57.3% | viability, T/C [27] 62% | viability, T/C [28] 55.8% | viability, T/C [29] 49.7% | viability, T/C [30] 41.1% | viability, T/C [31] 53.4% | viability, T/C [32] 50.6% | viability, T/C [33] 51% | viability, T/C [34] 47.2% | viability, T/C [35] 49.2% | viability, T/C [36] 38.5%
5.97: pIC50 (second compound 10 µM)
5.35: pIC50 (second compound 1 µM)
< 5.00: pIC50 (second compound 0.0316 µM) | pIC50 (second compound 0.1 µM)

CC1COCCN1c1cc(C2(S(C)(=N)=O)CC2)nc(-c2ccnc3[nH]ccc23)n1 (stereo not given) + Cc1[nH]c2ccc(F)cc2c1-c1nc2c3cccnc3c3ncccc3c2[nH]1
6.37: pIC50 (second compound 10 µM)
5.10: pIC50 (second compound 3.16 µM)
< 5.00: pIC50 (second compound 0.0316 µM) | pIC50 (second compound 0.1 µM) | pIC50 (second compound 0.316 µM) | pIC50 (second compound 1 µM)
inactive: viability, T/C [1] 96.4% | viability, T/C [2] 83% | viability, T/C [3] 110% | viability, T/C [4] 89.6% | viability, T/C [5] 87.1% | viability, T/C [6] 67.3% | viability, T/C [7] 76.6% | viability, T/C [8] 101% | viability, T/C [9] 85.8% | viability, T/C [10] 90.1% | viability, T/C [11] 75% | viability, T/C [12] 74.1% | viability, T/C [13] 97.3% | viability, T/C [14] 79.8% | viability, T/C [15] 97.7% | viability, T/C [16] 70.1% | viability, T/C [17] 74.6% | viability, T/C [18] 63.6% | viability, T/C [19] 80.3% | viability, T/C [20] 79% | viability, T/C [21] 85.4% | viability, T/C [22] 76.1% | viability, T/C [23] 64.3% | viability, T/C [24] 57.4% | viability, T/C [25] 56.2% | viability, T/C [26] 58.6% | viability, T/C [27] 55.9% | viability, T/C [28] 50.1% | viability, T/C [29] 53.6% | viability, T/C [30] 48.7% | viability, T/C [31] 47.9% | viability, T/C [32] 49.5% | viability, T/C [33] 47.5% | viability, T/C [34] 58.2% | viability, T/C [35] 44% | viability, T/C [36] 36.3%

CC(C)n1c(=O)n(C)c2cnc3cc(F)c(-c4ccc(OCCCN5CCCCC5)nc4)cc3c21 + Cc1[nH]c2ccc(F)cc2c1-c1nc2c3cccnc3c3ncccc3c2[nH]1
> 7.50: pIC50 (second compound 10 µM)
< 5.00: pIC50 (second compound 0.0316 µM) | pIC50 (second compound 0.1 µM) | pIC50 (second compound 0.316 µM) | pIC50 (second compound 1 µM)
5.49: pIC50 (second compound 3.16 µM)
inactive: viability, T/C [1] 98.8% | viability, T/C [2] 86.7% | viability, T/C [3] 110% | viability, T/C [4] 80.8% | viability, T/C [5] 103% | viability, T/C [6] 82.9% | viability, T/C [7] 90.9% | viability, T/C [8] 88.7% | viability, T/C [9] 85% | viability, T/C [10] 100% | viability, T/C [11] 78.2% | viability, T/C [12] 84.8% | viability, T/C [13] 88.1% | viability, T/C [14] 94.3% | viability, T/C [15] 79% | viability, T/C [16] 94.2% | viability, T/C [17] 104% | viability, T/C [18] 87.8% | viability, T/C [19] 72.8% | viability, T/C [20] 73.3% | viability, T/C [21] 82.2% | viability, T/C [22] 70.1% | viability, T/C [23] 80.8% | viability, T/C [24] 69.7% | viability, T/C [25] 52% | viability, T/C [26] 49.2% | viability, T/C [27] 55% | viability, T/C [28] 45.8% | viability, T/C [29] 50.9% | viability, T/C [30] 26.8% | viability, T/C [31] 48.7% | viability, T/C [32] 47% | viability, T/C [33] 54.9% | viability, T/C [34] 42% | viability, T/C [35] 47% | viability, T/C [36] 21.7%

COc1cc(C2c3cc4c(cc3C(OC3OC5COC(C)OC5C(O)C3O)C3COC(=O)C23)OCO4)cc(OC)c1O (stereo not given) + CN(C)c1ccc(Nc2c3ccc(NC(=O)CCN4CCCC4)cc3nc3cc(NC(=O)CCN4CCCC4)ccc23)cc1
< 5.00: pIC50 (second compound 0.0316 µM) | pIC50 (second compound 0.1 µM) | pIC50 (second compound 0.316 µM) | pIC50 (second compound 1 µM) | pIC50 (second compound 3.16 µM)
inactive: viability, T/C [1] 95.7% | viability, T/C [2] 106% | viability, T/C [3] 98.9% | viability, T/C [4] 90.4% | viability, T/C [5] 87% | viability, T/C [6] 98.8% | viability, T/C [7] 75.8% | viability, T/C [8] 88.2% | viability, T/C [9] 92.7% | viability, T/C [10] 82.3% | viability, T/C [11] 77.7% | viability, T/C [12] 78.4% | viability, T/C [13] 60.1% | viability, T/C [14] 69% | viability, T/C [15] 55.5% | viability, T/C [16] 69.4% | viability, T/C [17] 61.2% | viability, T/C [18] 61.3% | viability, T/C [19] 56.6% | viability, T/C [20] 45.2% | viability, T/C [21] 58.5% | viability, T/C [22] 62.3% | viability, T/C [23] 55.4% | viability, T/C [24] 55% | viability, T/C [25] 54.8% | viability, T/C [26] 49% | viability, T/C [27] 52.2% | viability, T/C [28] 56.5% | viability, T/C [29] 61.5% | viability, T/C [30] 54.6% | viability, T/C [31] 46.8% | viability, T/C [32] 59.5% | viability, T/C [33] 47.3% | viability, T/C [34] 57.4% | viability, T/C [35] 45.7% | viability, T/C [36] 48.5%
5.48: pIC50 (second compound 10 µM)

CC(C)(O)C1CCC(Nc2ccc3ncc(-c4cccc(C(F)(F)F)c4)n3n2)CC1 (stereo not given) + CN(C)c1ccc(Nc2c3ccc(NC(=O)CCN4CCCC4)cc3nc3cc(NC(=O)CCN4CCCC4)ccc23)cc1
5.97: pIC50 (second compound 1 µM)
5.59: pIC50 (second compound 0.1 µM)
inactive: viability, T/C [1] 90.4% | viability, T/C [2] 84.4% | viability, T/C [3] 55.8% | viability, T/C [4] 84% | viability, T/C [5] 48.6% | viability, T/C [6] 57% | viability, T/C [7] 82.6% | viability, T/C [8] 69.2% | viability, T/C [9] 62.7% | viability, T/C [10] 57.4% | viability, T/C [11] 45.2% | viability, T/C [12] 46% | viability, T/C [13] 55.9% | viability, T/C [14] 55.4% | viability, T/C [15] 50.2% | viability, T/C [16] 57.1% | viability, T/C [17] 55% | viability, T/C [18] 46.6% | viability, T/C [19] 75% | viability, T/C [20] 56.3% | viability, T/C [21] 54.4% | viability, T/C [22] 56.3% | viability, T/C [23] 50.2% | viability, T/C [24] 41% | viability, T/C [25] 67.5% | viability, T/C [26] 45.4% | viability, T/C [27] 51.3% | viability, T/C [28] 39% | viability, T/C [29] 46.8% | viability, T/C [30] 34% | viability, T/C [31] 46.3% | viability, T/C [32] 43.4% | viability, T/C [33] 41.8% | viability, T/C [34] 35.5% | viability, T/C [35] 41% | viability, T/C [36] 22.4%
< 5.00: pIC50 (second compound 0.0316 µM) | pIC50 (second compound 0.316 µM)
7.00: pIC50 (second compound 3.16 µM)
> 7.50: pIC50 (second compound 10 µM)
